From article PMC7881204, “A small-molecular inhibitor against Proteus mirabilis urease to treat catheter-associated urinary tract infections” (Scientific Reports, 2021) come the findings set out here.

For assay [1], the target named is T1, urease (Canavalia ensiformis, UniProt P07374).
T1 construct: Type III powder, urease from C. ensiformis (Merck)
The assay is described as follows: colorimetric urease assay (phenol red), Dixon plot; IC50 […]. The assay is classed as biochemical.

In assay [2] the target is T1, urease. The assay is described as follows: colorimetric urease assay (phenol red), dose-response. The assay is classed as biochemical.

T1 sequence (P07374 whole entry, looked up): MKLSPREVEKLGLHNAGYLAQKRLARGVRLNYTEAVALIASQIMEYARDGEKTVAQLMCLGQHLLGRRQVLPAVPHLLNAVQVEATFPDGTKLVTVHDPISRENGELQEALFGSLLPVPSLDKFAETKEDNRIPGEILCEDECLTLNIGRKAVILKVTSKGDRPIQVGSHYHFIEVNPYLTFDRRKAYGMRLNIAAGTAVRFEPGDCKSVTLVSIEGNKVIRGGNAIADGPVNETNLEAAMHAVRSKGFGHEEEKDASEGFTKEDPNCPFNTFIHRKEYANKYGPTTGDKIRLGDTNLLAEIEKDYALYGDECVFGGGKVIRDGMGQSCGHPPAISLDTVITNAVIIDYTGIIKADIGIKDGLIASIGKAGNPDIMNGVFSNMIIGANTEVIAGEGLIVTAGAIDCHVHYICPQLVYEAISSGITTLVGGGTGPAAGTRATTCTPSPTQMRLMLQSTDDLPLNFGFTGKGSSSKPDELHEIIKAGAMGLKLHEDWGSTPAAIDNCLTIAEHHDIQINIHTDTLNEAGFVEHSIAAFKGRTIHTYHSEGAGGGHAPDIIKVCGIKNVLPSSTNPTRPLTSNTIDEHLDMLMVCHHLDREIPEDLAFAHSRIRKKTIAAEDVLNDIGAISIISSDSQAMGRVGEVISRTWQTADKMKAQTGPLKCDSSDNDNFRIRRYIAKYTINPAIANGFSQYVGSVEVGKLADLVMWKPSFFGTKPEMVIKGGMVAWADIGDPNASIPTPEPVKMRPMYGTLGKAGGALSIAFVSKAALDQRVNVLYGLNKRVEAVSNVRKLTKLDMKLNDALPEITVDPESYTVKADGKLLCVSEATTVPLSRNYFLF

As to `NC(=O)CS` [2-MA, 2-mercaptoacetamide], the affinity at urease [1], expressed as Ki, was 2.95 mM. On to `CC(=O)NO` [AHA, acetohydroxamic acid], for which the IC50 (as a rule, the concentration needed to halve the response being measured) on urease [2] was 4.8 mM.
